Results on 2 molecules are retold here after ChEMBL document CHEMBL2146406, “DNA-binding study of anthraquinone derivatives using chemometrics methods” (Eur J Med Chem, 2011).

Common to all, as to type: nucleic-acid assay
What all share (details): Bos taurus

Experiment [1] relates to Nucleic Acid. Nature of the experiment: Binding affinity to calf thymus DNA in Brittone-Robinson buffer at 50 uM at pH 7 in presence of NaCl by UV-vis spectroscopy.
Experiment [2] relates to Nucleic Acid. Kind of experiment: Binding affinity to calf thymus DNA in Brittone-Robinson buffer at 50 uM at pH 7 by UV-vis spectroscopy.
The subject of experiment [3] is Nucleic Acid. Nature of the experiment: Binding affinity to calf thymus DNA in Brittone-Robinson buffer at 50 uM at pH 3 by UV-vis spectroscopy.
For experiment [4], the system named is Nucleic Acid. Kind of experiment: Binding affinity to calf thymus DNA in Brittone-Robinson buffer at 50 uM by UV-vis spectroscopy in presence of native DNA.
Experiment [5] relates to Nucleic Acid. Nature of the experiment: Binding affinity to calf thymus DNA in Brittone-Robinson buffer at 50 uM by UV-vis spectroscopy in presence of denatured DNA.
For experiment [6], the system named is Nucleic Acid. Nature of the experiment: Binding affinity to calf thymus DNA at 50 uM by circular dichroism spectra. In general terms: Circular dichroism is widely used to follow secondary structure.
Experiment [7] concerns Nucleic Acid. Kind of experiment: Binding affinity to calf thymus DNA at DNA/compound ratio 0.1 to 2 at pH 7 by measuring DNA viscosity.
The test system of experiment [8] is Nucleic Acid. Nature of the experiment: Binding affinity to calf thymus DNA assessed as hydrogen bonding.
Experiment [9] deals with Nucleic Acid. Nature of the experiment: Binding affinity to calf thymus DNA assessed as partial intercalation.
The test system of experiment [10] is Nucleic Acid. Nature of the experiment: Ratio of danthron Kb to quinizarin Kb for calf thymus DNA.

Active and inactive are the calls of the source. The calls are words filed in the database; no cut-off is given here.

For `O=C1c2cccc(O)c2C(=O)c2c(O)cccc21`, the outcome in the experiment with Nucleic Acid [1], in the experiment on Nucleic Acid [2], in the experiment with Nucleic Acid [4], with Nucleic Acid [5], in the experiment on Nucleic Acid [6] and in the experiment on Nucleic Acid [7] was Active. Also, the result with Nucleic Acid [3] was inactive. Further, the Kb came to 3.6 ×10⁴ /M in the experiment on Nucleic Acid [8] and 7.2 ×10⁶ /M in the experiment with Nucleic Acid [9].

With `O=C1c2ccccc2C(=O)c2c(O)ccc(O)c21`, the result in the experiment on Nucleic Acid [1], with Nucleic Acid [2], with Nucleic Acid [4], in the experiment on Nucleic Acid [5], in the experiment on Nucleic Acid [6] and in the experiment on Nucleic Acid [7] was Active. For the same molecule, in the experiment with Nucleic Acid [3], the result was inactive. In addition, the Kb is 1.66 ×10⁴ /M with Nucleic Acid [8] and 3.2 ×10⁷ /M with Nucleic Acid [9]. The Ratio in the experiment with Nucleic Acid [10] was found to be 5.
